Assay results as given in patent publication US20120003661A1, “METHODS AND DEVICES FOR THE SELECTIVE DETECTION OF MICROORGANISMS” (C3 JIAN, INC., priority 2010, published 2012).
Entries after “also recorded” stand apart in the source; their conditions may differ. Like-named read-outs stand apart in the source and are kept apart here.

System: bacteria, fungi, and/or yeasts
Format: binding
[1] = microorganism(s) listed as target(s) of the targeting peptide, wrapped target lists given cell by cell
[2] = microorganism(s) that the targeting peptide binds, as listed in Table 2
[3] = microorganism(s) the targeting peptide binds, as listed in Table 2

Row | Substance | Target(s) [1] | Target(s) [3] | other results
1 | 1T-273 (YNEPNYKWLESYKIYKQRCEDRTGMYYTEET) | F. nucleatum, P. gingivalis, T. denticola,; also recorded: S. mitis, S. mutans, S. oralis | – | –
2 | PF-S024 (SKRGRKRKDRRKKKANHGKRPNS) | Corynebacteria spp. | – | –
3 | PF-C050 (QGLARPVLRRIPL) | – | – | Target(s) [2]: A. naeslundii, S. mutans
4 | 1T-174 (SGGSDTDGSSSGEPGSHSGDL) | – | A. naeslundii, F. nucleatum, P. gingivalis,; also recorded: T. denticola, S. gordonii,; also recorded: S. mitis, S. mutans, S. oralis,; also recorded: S. salivarious, S. sanguinis | –
5 | PF-011 (MFCYYKQHKGDNFSIEEVKNIIADNEMKVN) | M. luteus, E. coli, P. aeruginosa,; also recorded: S. pneumoniae, C. jeikeium | – | –
6 | PF-046 (LDFYLTKHLTLML) | E. coli, E. faecalis, C. jeikeium | – | –
7 | 1T-292 (IINQLNLILLRLMEILIL) | A. naeslundii, F. nucleatum, P. gingivalis,; also recorded: S. epidermidis, S. gordonii,; also recorded: S. mitis, S. mutans, S. oralis,; also recorded: S. salivarious, S. sanguinis | – | –
8 | 1T-112 (SDNDGKLILGTSQ) | – | S. gordonii | –
9 | 1T-295 (KYKLKKIIL) | S. mitis, S. salivarious, S. sanguinis | – | –
10 | 1T-132 (YSKKLFEYFYFIIFILIRYLIFYKIIQNKNYYINNIAYN) | – | A. naeslundii, F. nucleatum, P. gingivalis,; also recorded: S. epidermidis, S. gordonii,; also recorded: S. mitis, S. mutans, S. oralis,; also recorded: S. salivarious, S. sanguinis | –
11 | 1T-141 (KKFIILLFILVQGLIFSATKTLSDIIAL) | – | F. nucleatum, P. gingivalis, S. epidermidis,; also recorded: S. gordonii, S. mitis,; also recorded: S. mutans, S. oralis, S. sanguinis | –
12 | PF-C063 (SHFRKGD) | – | – | Target(s) [2]: A. naeslundii, F. nucleatum, S. mutans
13 | 1T-300 (PLIISKAQIKMSGDILGSCFKLFYLRPFF) | S. salivarious, S. sanguinis; also recorded: A. naeslundii, F. nucleatum, P. gingivalis,; also recorded: S. epidermidis, S. gordonii,; also recorded: S. mitis, S. mutans, S. oralis, | – | –
14 | 1T-89 (HEDDKRRGMSVEVLGFEVVQHEE) | – | S. mitis, S. mutans | –
15 | 1T-131 (DEVWKMLGI) | – | A. naeslundii, F. nucleatum, P. gingivalis,; also recorded: T. denticola, S. gordonii,; also recorded: S. mitis, S. mutans, S. oralis,; also recorded: S. salivarious, S. sanguinis | –
16 | PF-C075 (KALVISVFAIVFSIIFVKFFYWRDKK) | – | – | Target(s) [2]: A. naeslundii, F. nucleatum, P. gingivalis,; also recorded: S. mutans, T. denticola
17 | PF-142 (GIDRGCQAAR) | S. mutans | – | –
18 | PF-001 (MNNWIIVAQLSVTVINEIIDIMKEKQKGGK) | S. epidermidis, M. luteus, P. mirabilis,; also recorded: E. coli, P. aeruginosa,; also recorded: C. albicans, MRSA, E. faecalis,; also recorded: C. jeikeium | – | –
19 | 1T-135 (FESLLPQATKKIVNNKGSKINKIF) | – | A. naeslundii, P. gingivalis, S. epidermidis,; also recorded: S. gordonii, S. mitis,; also recorded: S. mutans, S. oralis, S. salivarious,; also recorded: S. sanguinis | –
20 | PF-136 (LRGRVGRITACGYPP) | S. epidermidis, M. luteus, P. mirabilis,; also recorded: E. coli, MRSA, E. faecalis,; also recorded: C. jeikeium, C. jejuni, M. smegmatis | – | –
21 | 1T-54 (RWVSCNPSWRIQ) | – | S. epidermidis, C. xerosis, C. striatum,; also recorded: P. aeruginosa | –
22 | PF-125 (YVVGALVILAVAGLIYSMLRKA) | S. epidermidis, M. luteus, P. mirabilis,; also recorded: E. coli, P. aeruginosa,; also recorded: C. albicans, MRSA, S. pneumoniae,; also recorded: E. faecalis, C. jejuni | – | –

Row | Substance | Target(s) [1] | Target(s) [3] | other results
23 | 1T-219 (RNINVSATFITEKSLV) | – | S. sanguinis | –
24 | PF-Y (FIKHFIHRF) | – | – | Target(s) [2]: S. mutans
25 | 1T-149 (SVRAVKPIDETVARHFPGDFIVN) | – | A. naeslundii, F. nucleatum, P. gingivalis,; also recorded: T. denticola, S. gordonii,; also recorded: S. mitis, S. mutans, S. oralis,; also recorded: S. salivarious, S. sanguinis | –
26 | PF-C091 (ASNTPRFVRLTLFNFYSKIWNVTHLFLFNNL) | – | – | Target(s) [2]: A. naeslundii, F. nucleatum, P. gingivalis,; also recorded: S. mutans, T. denticola
27 | PF-C131 (QWIVAKREIRMHIYCHISVIHVIIFFG) | – | – | Target(s) [2]: A. naeslundii, F. nucleatum, P. gingivalis,; also recorded: S. mutans
28 | 1T-283 (LCTKLEDKQRGRIPAELFIISPIKILERNDAL) | A. naeslundii, F. nucleatum, P. gingivalis,; also recorded: T. denticola, S. epidermidis,; also recorded: S. gordonii, S. mitis,; also recorded: S. mutans, S. oralis, S. salivarious,; also recorded: S. sanguinis | – | –
29 | 1T-156 (GRFQISIRGEEKSKVKVQGKGTFTDRNTT) | – | A. naeslundii, F. nucleatum, P. gingivalis,; also recorded: T. denticola, S. gordonii,; also recorded: S. mitis, S. mutans, S. oralis,; also recorded: S. salivarious, S. sanguinis | –
30 | 1T-90 (RNVIGQVL) | – | S. gordonii, S. mitis, S. mutans,; also recorded: S. oralis, S. sanguinis | –
31 | 1T-60 (YLTSLGLDAAEQAQGLLTILKG) | – | S. aureus, S. epidermidis, C. jeikeium,; also recorded: C. striatum, P. aeruginosa | –
32 | 1T-169 (FARVRRLHQNRILTQPLTNLKYCLRQPIYSD) | – | A. naeslundii, F. nucleatum, P. gingivalis,; also recorded: S. epidermidis, S. gordonii,; also recorded: S. mitis, S. mutans, S. oralis,; also recorded: S. salivarious, S. sanguinis | –
33 | PF-169 (APGSAADSPRSRADD) | S. epidermidis, E. coli, C. albicans,; also recorded: E. faecalis, C. jeikeium | – | –
34 | 1T-257 (IILAKAADLAEIERIISEDPFKINEIANYDIIEFCPTKSSKAFEKVLK) | A. naeslundii, F. nucleatum, P. gingivalis,; also recorded: S. epidermidis, S. gordonii,; also recorded: S. mitis, S. mutans, S. oralis,; also recorded: S. salivarious, S. sanguinis | – | –
35 | PF-133 (GDPTAGQKPVECP) | S. epidermidis, C. jeikeium, C. jejuni,; also recorded: M. smegmatis | – | –
36 | PF-097 (QPTQGEQGTRPRRPTPMRGLLI) | C. jeikeium | – | –
37 | 1T-281 (KYEKLTKENLFIRNSGNMCVFIYFLFFG) | A. naeslundii, F. nucleatum, P. gingivalis,; also recorded: S. epidermidis, S. gordonii,; also recorded: S. mitis, S. mutans, S. oralis,; also recorded: S. salivarious, S. sanguinis | – | –
38 | 1T-111 (GRLSRREEDPATSIILLRGAYRMAVF) | – | A. naeslundii, F. nucleatum, P. gingivalis,; also recorded: S. epidermidis, S. gordonii,; also recorded: S. mitis, S. mutans, S. oralis,; also recorded: S. salivarious, S. sanguinis | –
39 | PF-163 (TSWLRAAERQEIGEPTKTFGEKTTSL) | S. epidermidis | – | –
40 | PF-063 (IAAIIVLVLFQKGLLQIFNWILIQLQ) | S. epidermidis, M. luteus, E. coli,; also recorded: P. aeruginosa, MRSA, S. pneumoniae,; also recorded: E. faecalis, C. jeikeium,; also recorded: C. jejuni | – | –
41 | PF-073 (CPSVTMDACALLQKFDFCNNISHFRHFFAIKQPIER) | S. epidermidis, M. luteus, P. aeruginosa,; also recorded: C. albicans, MRSA,; also recorded: S. pneumoniae, E. faecalis | – | –
42 | 1T-164 (KKSHSQGKRKLKDLNSAYKIDNQLHYALR) | – | A. naeslundii, F. nucleatum, P. gingivalis,; also recorded: S. epidermidis, S. gordonii,; also recorded: S. mitis, S. mutans, S. oralis,; also recorded: S. salivarious, S. sanguinis | –
43 | 1T-200 (MRFKRFDRDYALSGDNVFEVLTASCDVIERNLSYREMCGLMQ) | – | A. naeslundii, F. nucleatum, S. epidermidis,; also recorded: S. gordonii, S. mitis,; also recorded: S. mutans, S. oralis, S. salivarious,; also recorded: S. sanguinis | –
44 | PF-030 (MTCHQAPTTTHQSNMA) | yeast and hyphal forms; also recorded: S. epidermidis, M. luteus, P. mirabilis,; also recorded: E. coli, P. aeruginosa,; also recorded: C. albicans, MRSA, S. pneumoniae,; also recorded: E. faecalis, C. jeikeium,; also recorded: C. jejuni | – | –
